Laboratory results: PubChem BioAssay (NCI)
“And” between values parts separate entries of the source, which are not always exact repeats. Equal values may be shown once.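 Cells were grown in 96-well plates and exposed to each compound for 48 hours at five concentrations; endpoints were interpolated linearly between bracketing concentrations, or set to the highest concentration if not reached. GI50: concentration for 50% inhibition of growth. Definition used: TGI = concentration required for complete inhibition of growth.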

Experiments:
Assay in all cases: inhibition of tumour cell growth, NCI panel, 48 h
[1] = test system: U251 CNS
[2] = test system: T-47D breast
[3] = test system: OVCAR-4 ovarian
[4] = test system: NCI-H522 lung
[5] = test system: NCI/ADR-RES ovarian
[6] = test system: OVCAR-5 ovarian
[7] = test system: A549 NSCLC
[8] = test system: CCRF-CEM leukemia
[9] = test system: SK-MEL-2 melanoma
[10] = test system: RXF 393 renal

SMILES	GI50 [1]	TGI [1]	GI50 [2] [µM]	TGI [2] [µM]	GI50 [3] [µM]	TGI [3]	GI50 [4]	TGI [4]	GI50 [5]	TGI [5]	GI50 [6] [µM]	TGI [6]	GI50 [7]	TGI [7]	GI50 [8]	TGI [8] [µM]	GI50 [9] [µM]	TGI [9]	TGI [10] [µM]	GI50 [10] [µM]
COc1ccc2c(c1)C(=O)c1c-2c(NCCN(C)C)nc2ccccc12	2.47 µM	11.7 µM	14.8	34.6	12.2	36.3 µM	6.92 µM	20.9 µM	3.66 µM	14.3 µM	4.23	16 µM	0.946 µM	4.49 µM	0.561 µM	11.5	15.7	31 µM		
C#Cc1cc(CN(CC(=O)OC(C)(C)C)CC(=O)OC(C)(C)C)nc(CN(CC(=O)OC(C)(C)C)CC(=O)OC(C)(C)C)c1		27.8 µM				37.9 µM		4.22 µM				> 100 µM		89.4 µM		7.93		8.24 µM	14.2	
COc1cc2c3c(n(CCCN4CCCC(O)C4)c(=O)c2cc1OC)-c1cc2c(cc1C3=O)OCO2 (stereo not given)	0.00633 µM	0.854 µM	1.16	3.2	1.07	2.68 µM	2.34 µM	8.91 µM	0.0503 µM	1.06 µM	0.931	1.71 µM	0.642 µM	1.51 µM	0.00738 µM	0.278	2.68	28.4 µM		
Cn1nc2ccccc2cc1=O		> 100 µM				> 100 µM						> 100 µM		> 100 µM		> 100		> 100 µM		
CC(CN)[C@@H]1CC[C@]2(CO)CC[C@]3(C)[C@H](CC[C@@H]4[C@@]5(C)CCC(N)C(C)(C)[C@@H]5CC[C@]43C)[C@@H]12 (stereo not given in full)	1.91 µM	3.31 µM	1.84	3.99	1.61	3.16 µM	1.81 µM	3.45 µM			1.85	3.58 µM	1.85 µM	3.29 µM			1.93	3.6 µM	3.07	1.55
Nc1nc(=Nc2ccccc2)ss1		> 100 µM				> 100 µM		> 100 µM				> 100 µM		> 100 µM					> 100	
c1ccc2c3c(ccc2c1)-c1c(ccc2c(NCCCCN4CCCCC4)cccc12)C3	1.77 µM	3.16 µM	4.27	> 100	2.81	> 31 µM	3.42 µM	9.22 µM	1.61 µM	2.96 µM	1.31	2.88 µM	1.47 µM	2.79 µM			2.92	6.42 µM		
CCOC(=O)NC1CC2CCC1(OC)C=C2C (stereo not given)		> 100 µM				> 100 µM		> 100 µM				> 100 µM		> 100 µM		> 100		> 100 µM	> 100	
CCCCCCCCCCCCC(CCCCCCCCCCCC)OP(=O)(O)O		> 100 µM				> 100 µM		> 100 µM				> 100 µM		> 100 µM		> 100		> 100 µM	> 100	
CCCCCCCCCCCCCCCCCC[N+](C)(C)Cc1ccc(C[N+](C)(C)CCCCCCCCCCCCCCCCCC)cc1		56.2 µM				> 100 µM		> 100 µM				96.7 µM		38.8 µM		44.1		> 100 µM	6.67	
Nc1ncnc2c1ncn2C1OC(COC2C(CO)OC(OC(C(=O)O)C(O)C(OP(=O)(O)O)C(O)C(=O)O)C(O)C2O)C(O)C1O (stereo not given)		> 100 µM				> 100 µM		> 100 µM				> 100 µM		> 100 µM		> 100		> 100 µM		
COC1CC(OC)C(O)C(CO)O1 (stereo not given)		> 100 µM				> 100 µM		> 100 µM				> 100 µM		> 100 µM		> 100		> 100 µM	> 100	
COc1ccccc1NC(=O)C(CC(C(=O)Nc1ccccc1OC)/C(C)=N/NC(=O)c1ccccc1O)/C(C)=N/NC(=O)c1ccccc1O (stereo not given)		> 100 µM				> 100 µM		> 100 µM				> 100 µM		> 100 µM		> 100		> 100 µM	> 100	
COC(=O)C1=C(C)N(NC(N)=O)C(C)(O)C12CCOC2=O (stereo not given)		> 100 µM				> 100 µM		> 100 µM				> 100 µM		> 100 µM		> 100		> 100 µM		
Cc1ccc(N2C(=O)C(Cl)=C(Cl)C2=O)cc1		> 100 µM				34.4 µM		28.6 µM				35.9 µM		> 100 µM		23.4		> 100 µM	25.4	
FC(F)(F)c1nc(-c2ccccc2)oc1Sc1oc(-c2ccccc2)nc1C(F)(F)F		> 100 µM				90.2 µM		> 100 µM				> 100 µM		> 100 µM		> 100		> 100 µM	> 100	
Cc1ccccc1NC(=O)c1ccc([N+](=O)[O-])cc1		> 100 µM				> 100 µM		> 100 µM				> 100 µM		> 100 µM		> 100			> 100	
Cn1sc2ccccc2c1=S		13.5 µM				19.4 µM		9.36 µM		9.38 µM		37.4 µM		28.8 µM		14.8		56.5 µM	7.95	
COc1ccc(C2c3c(-c4ccccc4)nn(-c4ccccc4)c3Oc3ncn4nc(CC#N)nc4c32)cc1OC (stereo not given)	23.5 µM and 3.62 µM	63.8 µM and 16.7 µM		> 54		65.9 µM and 7.38 µM	40.2 µM and 4.62 µM	> 100 µM and 15.7 µM	26.2 µM and 3.6 µM	67.5 µM and > 45.4 µM		> 100 µM and 13.8 µM	> 100 µM and 13.7 µM	> 100 µM and 68.1 µM	28.6 µM and > 100 µM	> 100		> 100 µM and 47.3 µM		
C=C[C@H]1C=Cc2c(OC)cccc2[C@@H]1COP1(=S)NC(C)C(c2ccccc2)O1 (stereo not given in full)		> 100 µM				> 100 µM		> 100 µM						> 100 µM		> 100			> 100	
Nc1ccccc1C#Cc1ccccc1C#Cc1cnccn1	17.7 µM	32 µM			20.6	72.3 µM	9.05 µM	30.2 µM	16.2 µM	37.4 µM	18.6	43.5 µM	44.3 µM	> 100 µM	33.2 µM	> 100			> 100	85.4
